Source: the NIST ThermoML archive (doi:10.1016/j.jct.2005.03.019)

Assay: xn = mol fraction of the nth substance listed
Details: 101 kPa, Liquid, Vibrating tube method

CC1COC(=O)O1 (centres undefined) [4-methyl-1,3-dioxolan-2-one] + CCc1ccccc1
Details	mass density [kg/m3]
293.15 K, x2 = 0	1200.3
293.15 K, x2 = 0.0592	1173.5
293.15 K, x2 = 0.1139	1149.9
293.15 K, x2 = 0.1749	1124.6
293.15 K, x2 = 0.2471	1096.1
293.15 K, x2 = 0.3274	1066.1
293.15 K, x2 = 0.3856	1045.5
293.15 K, x2 = 0.4527	1022.7
293.15 K, x2 = 0.5049	1005.6
293.15 K, x2 = 0.5672	986.1
293.15 K, x2 = 0.6368	965.1
293.15 K, x2 = 0.6978	947.4
293.15 K, x2 = 0.7529	932
293.15 K, x2 = 0.8149	915.2
293.15 K, x2 = 0.8742	899.6
293.15 K, x2 = 0.9368	883.5
303.15 K, x2 = 0	1180.6
303.15 K, x2 = 0.0489	1159.1
303.15 K, x2 = 0.1278	1126.2
303.15 K, x2 = 0.1974	1098.6
303.15 K, x2 = 0.2484	1079.4
303.15 K, x2 = 0.3149	1055.2
303.15 K, x2 = 0.3759	1034.1
303.15 K, x2 = 0.4349	1014.5
303.15 K, x2 = 0.4876	997.7
303.15 K, x2 = 0.5498	978.5
303.15 K, x2 = 0.5922	965.9
303.15 K, x2 = 0.659	946.7
303.15 K, x2 = 0.7249	928.4
303.15 K, x2 = 0.7941	910
303.15 K, x2 = 0.8578	893.5
303.15 K, x2 = 0.9247	876.8
313.15 K, x2 = 0	1161.3
313.15 K, x2 = 0.0662	1133.7
313.15 K, x2 = 0.1258	1110
313.15 K, x2 = 0.1835	1088
313.15 K, x2 = 0.2458	1065.3
313.15 K, x2 = 0.3342	1034.7
313.15 K, x2 = 0.3958	1014.5
313.15 K, x2 = 0.4592	994.6
313.15 K, x2 = 0.5135	978.2
313.15 K, x2 = 0.5629	963.7
313.15 K, x2 = 0.6248	946.2
313.15 K, x2 = 0.6724	933.2
313.15 K, x2 = 0.7383	915.7
313.15 K, x2 = 0.7873	903.2
313.15 K, x2 = 0.8534	886.7
313.15 K, x2 = 0.9378	866.4
323.15 K, x2 = 0	1142.4
323.15 K, x2 = 0.0635	1117.4
323.15 K, x2 = 0.1139	1098.3
323.15 K, x2 = 0.1729	1076.8
323.15 K, x2 = 0.2384	1054
323.15 K, x2 = 0.3248	1025.4
323.15 K, x2 = 0.3859	1006.2
323.15 K, x2 = 0.4523	986.2
323.15 K, x2 = 0.5048	971
323.15 K, x2 = 0.5733	951.9
323.15 K, x2 = 0.6387	934.4
323.15 K, x2 = 0.7038	917.6
323.15 K, x2 = 0.7587	903.8
323.15 K, x2 = 0.8137	890.5
323.15 K, x2 = 0.8698	877.2
323.15 K, x2 = 0.9247	864.5
333.15 K, x2 = 0	1124
333.15 K, x2 = 0.0587	1102.4
333.15 K, x2 = 0.1328	1076.2
333.15 K, x2 = 0.1849	1058.6
333.15 K, x2 = 0.2489	1037.9
333.15 K, x2 = 0.3186	1016.2
333.15 K, x2 = 0.3767	998.9
333.15 K, x2 = 0.435	982.2
333.15 K, x2 = 0.4957	965.5
333.15 K, x2 = 0.5549	949.7
333.15 K, x2 = 0.6247	931.8
333.15 K, x2 = 0.6978	913.8
333.15 K, x2 = 0.7629	898.4
333.15 K, x2 = 0.8247	884.2
333.15 K, x2 = 0.8624	875.7
333.15 K, x2 = 0.9358	859.5
343.15 K, x2 = 0	1106
343.15 K, x2 = 0.0524	1088.2
343.15 K, x2 = 0.1125	1068.5
343.15 K, x2 = 0.1828	1046.3
343.15 K, x2 = 0.2398	1029.1
343.15 K, x2 = 0.3049	1010.2
343.15 K, x2 = 0.3673	992.8
343.15 K, x2 = 0.4348	974.7
343.15 K, x2 = 0.4817	962.6
343.15 K, x2 = 0.5428	947.3
343.15 K, x2 = 0.6048	932.3
343.15 K, x2 = 0.6721	916.5
343.15 K, x2 = 0.7498	899
343.15 K, x2 = 0.8247	882.7
343.15 K, x2 = 0.8827	870.5
343.15 K, x2 = 0.9478	857
353.15 K, x2 = 0	1088.4
353.15 K, x2 = 0.0629	1069.2
353.15 K, x2 = 0.1272	1050.2
353.15 K, x2 = 0.1947	1031
353.15 K, x2 = 0.2598	1013.3
353.15 K, x2 = 0.3138	999
353.15 K, x2 = 0.3945	978.6
353.15 K, x2 = 0.4629	962
353.15 K, x2 = 0.5148	949.8
353.15 K, x2 = 0.5749	936.1
353.15 K, x2 = 0.6345	923
353.15 K, x2 = 0.7039	908.2
353.15 K, x2 = 0.7635	895.8
353.15 K, x2 = 0.8137	885.7
353.15 K, x2 = 0.8642	875.7
353.15 K, x2 = 0.9248	863.9

CC1COC(=O)O1 (centres undefined) [4-methyl-1,3-dioxolan-2-one] + c1ccccc1
Details	mass density [kg/m3]
293.15 K, x2 = 0	1200.3
293.15 K, x2 = 0.049	1184.5
293.15 K, x2 = 0.1189	1162
293.15 K, x2 = 0.1749	1144.1
293.15 K, x2 = 0.2349	1125
293.15 K, x2 = 0.2949	1105.9
293.15 K, x2 = 0.3649	1083.6
293.15 K, x2 = 0.4248	1064.6
293.15 K, x2 = 0.4959	1041.9
293.15 K, x2 = 0.5529	1023.8
293.15 K, x2 = 0.6249	1000.7
293.15 K, x2 = 0.6934	978.6
293.15 K, x2 = 0.7539	959
293.15 K, x2 = 0.8135	939.6
293.15 K, x2 = 0.8622	923.6
293.15 K, x2 = 0.9248	902.9
303.15 K, x2 = 0	1180.6
303.15 K, x2 = 0.0487	1165.3
303.15 K, x2 = 0.1273	1140.9
303.15 K, x2 = 0.1841	1123.3
303.15 K, x2 = 0.2487	1103.3
303.15 K, x2 = 0.3127	1083.6
303.15 K, x2 = 0.3749	1064.4
303.15 K, x2 = 0.4364	1045.4
303.15 K, x2 = 0.4821	1031.4
303.15 K, x2 = 0.5428	1012.6
303.15 K, x2 = 0.6038	993.7
303.15 K, x2 = 0.6782	970.5
303.15 K, x2 = 0.7465	949.1
303.15 K, x2 = 0.8246	924.4
303.15 K, x2 = 0.8846	905.3
303.15 K, x2 = 0.9381	888.1
313.15 K, x2 = 0	1161.3
313.15 K, x2 = 0.0537	1145
313.15 K, x2 = 0.1295	1122
313.15 K, x2 = 0.1649	1111.4
313.15 K, x2 = 0.2359	1090
313.15 K, x2 = 0.3139	1066.7
313.15 K, x2 = 0.3619	1052.3
313.15 K, x2 = 0.4143	1036.6
313.15 K, x2 = 0.4829	1016.1
313.15 K, x2 = 0.5498	996.1
313.15 K, x2 = 0.625	973.4
313.15 K, x2 = 0.6821	956.2
313.15 K, x2 = 0.7492	935.8
313.15 K, x2 = 0.8247	912.6
313.15 K, x2 = 0.8732	897.6
313.15 K, x2 = 0.9348	878.4
323.15 K, x2 = 0	1142.4
323.15 K, x2 = 0.0598	1124.7
323.15 K, x2 = 0.131	1103.7
323.15 K, x2 = 0.1856	1087.7
323.15 K, x2 = 0.2438	1070.7
323.15 K, x2 = 0.3257	1046.8
323.15 K, x2 = 0.3987	1025.6
323.15 K, x2 = 0.4589	1008.1
323.15 K, x2 = 0.5156	991.6
323.15 K, x2 = 0.5687	976.1
323.15 K, x2 = 0.6145	962.7
323.15 K, x2 = 0.6647	948
323.15 K, x2 = 0.7365	926.8
323.15 K, x2 = 0.7965	909
323.15 K, x2 = 0.8567	891
323.15 K, x2 = 0.9267	869.8
333.15 K, x2 = 0	1124
333.15 K, x2 = 0.0592	1106.9
333.15 K, x2 = 0.1281	1087
333.15 K, x2 = 0.1834	1071.2
333.15 K, x2 = 0.2487	1052.6
333.15 K, x2 = 0.3279	1030.1
333.15 K, x2 = 0.3987	1010
333.15 K, x2 = 0.4598	992.7
333.15 K, x2 = 0.5139	977.4
333.15 K, x2 = 0.5533	966.2
333.15 K, x2 = 0.6138	949
333.15 K, x2 = 0.6623	935.1
333.15 K, x2 = 0.7246	917.3
333.15 K, x2 = 0.7749	902.7
333.15 K, x2 = 0.8568	878.9
333.15 K, x2 = 0.9248	858.9
343.15 K, x2 = 0	1106
343.15 K, x2 = 0.0638	1087.9
343.15 K, x2 = 0.1139	1073.8
343.15 K, x2 = 0.1756	1056.4
343.15 K, x2 = 0.2439	1037.4
343.15 K, x2 = 0.3178	1016.9
343.15 K, x2 = 0.3875	997.6
343.15 K, x2 = 0.4583	978
343.15 K, x2 = 0.5076	964.3
343.15 K, x2 = 0.5586	950.2
343.15 K, x2 = 0.6246	931.9
343.15 K, x2 = 0.6981	911.4
343.15 K, x2 = 0.7528	896.1
343.15 K, x2 = 0.8137	878.9
343.15 K, x2 = 0.8748	861.5
343.15 K, x2 = 0.9361	843.9
353.15 K, x2 = 0	1088.4
353.15 K, x2 = 0.053	1073.6
353.15 K, x2 = 0.1329	1051.5
353.15 K, x2 = 0.1822	1037.9
353.15 K, x2 = 0.2378	1022.7
353.15 K, x2 = 0.3327	996.9
353.15 K, x2 = 0.381	983.8
353.15 K, x2 = 0.4485	965.5
353.15 K, x2 = 0.5236	945.2
353.15 K, x2 = 0.5728	931.9
353.15 K, x2 = 0.6387	914
353.15 K, x2 = 0.6831	901.9
353.15 K, x2 = 0.7428	885.6
353.15 K, x2 = 0.7933	871.7
353.15 K, x2 = 0.8642	852.1
353.15 K, x2 = 0.9461	829.2
